Legend:
Assay type in all cases: in vivo
Settings in all cases: applied in granular form; pre-plant and final test results collectively
[1] = system: reniform nematode (Rotylenchulus reniformis); assay: Nematicidal activity of granules in infested silt loam pots: reniform nematodes
Protocol: (§1) The soil used in this study was naturally infested with three species of nematodes, one of which was deleterious, and the other two beneficial, and observations were made of both the survival of the nematodes and the growth of the soybean plants.
(§2) The hydrogen cyanamide granules were prepared by impregnating PROFILE granules (15 mesh) with DORMEX (50% hydrogen cyanamide in aqueous solution with phosphate buffer), and drying the moist granules on trays at 20° C. for 24 hours to achieve granules containing hydrogen cyanamide at a concentration of 25% by weight. Planting pots measuring 10 cm in diameter were used. Each pot contained 1 kg of silt loam from a cotton field, pH 6.2, CEC<10 meq/100 g soil, organic matter<1.0%, the soil being severely infested with the deleterious reniform nematode (Rotylenchulus reniformis). […]
(§3) After the polyethylene bags were removed, each pot was planted with Hutcheson soybean seeds at 5 seeds per pot, and the seeds were allowed to germinate and the plants to grow for 39 days. […] The number of surviving nematodes in each pot were determined, as were the number of nematodes in the root systems, the weights of both the fresh shoots and the roots, and the shoot height. […] Fischer's Least Significant Difference at p 0.05 was calculated when appropriate. […]

[2] = system: Dorylaimida nematodes; assay: Nematicidal activity of granules in infested silt loam pots: Dorylaimida nematodes
Protocol: as §1, §2, §3

[3] = system: microbivorous (beneficial) nematodes; assay: Nematicidal activity of granules in infested silt loam pots: microbivorous nematodes
Protocol: as §1, §2, §3

N#CN [hydrogen cyanamide]
nematicidal activity against the reniform nematodes [1]: without loss of nematicidal activity | populations of the Dorylaimida nematodes [2]: affected | populations of the microbivorous nematodes [3]: not significantly affected

From patent publication US20100004131A1, “SOLID FORMULATIONS OF HYDROGEN CYANAMIDE FOR AGRICULTURAL APPLICATIONS” (Metbro Distributing, L.P., priority 2007, published 2010)
